Like-named read-outs stand apart in the source and are kept apart here.
Tested on: 10 human tumor xenograft-derived cell suspensions or tumor cell lines of renal cancer
Experiment: In vitro 3D assay, clonogenic assay, whole panel
Format: cell-based
Conditions: geometric mean of 10 renal tumor models, 3D colony formation
Protocol: Ketorolac was characterized for its ability to inhibit anchorage independent growth and ex vivo colony formation of tumor cells in semi-solid medium. The compound was tested against 10 human tumor xenograft-derived cell suspensions or tumor cell lines of renal cancer.
Cell lines were routinely passaged one or twice weekly. […] The percentage of viable cells was determined in a Neubauer-hemocytometer using trypan blue exclusion.
Tumor xenografts (patient-derived, as well as cell line-derived xenografts) were passaged as subcutaneous xenografts in NMRI nu/nu mice. At a tumor volume of 400-1000 mm^3 tumor-bearing mice were sacrificed and tumors were collected under sterile conditions without delay according to the relevant Oncotest SOPs and the relevant animal welfare guidelines published by the FELASA and the GV-SOLAS. […] The percentage of viable cells was determined in a Neubauer-hemocytometer using trypan blue exclusion. Aliquots of the cells were frozen down, and stored in liquid nitrogen. On each day of an experiment, a frozen aliquot of tumor cells was thawed and used for preparation of assay plates.
The clonogenic assay was carried out in a 96 well plate format using ultra low attachment plates. […] Every plate included six untreated control wells and drug-treated groups in duplicate at 9 concentrations. […] At the time of maximum colony formation, counts were performed with an automatic image analysis system (Celllnsight NXT, Thermo Scientific). 48 hours prior to evaluation, vital colonies were stained with a sterile aqueous solution of 2-(4-iodophenyl)-3-(4-nitrophenyl)-5-phenyltetrazolium chloride (1 mg/ml, 100 μl/well).

## O=C(c1ccccc1)c1ccc2n1CCC2C(=O)O (racemic) [Ketorolac, (±)-5-benzoyl-2,3-dihydro-1H-pyrrolizine-1-carboxylic acid]
Homo sapiens, read-out: Absolute IC50, geometric mean
  IC50: 2040 µM
Homo sapiens, read-out: Relative IC50, geometric mean (mean relative IC50)
  IC50: 2040 µM
read-out: Relative IC50, geometric mean (mean relative IC50)
  IC50: 2080 µM

From patent US10391080B2, “Ketorolac for the treatment of cancer” (Cipla Limited, priority 2016, dated 2019)
